Active and inactive are the calls of the source.
Tests used:
Vero = assay: cells; format: functional; settings: Chlorocebus sabaeus
Albumin = Albumin (Bos taurus, UniProt P02769); assay: Counterscreen for inhibitors of T-cell receptor (TCR)-CD3 interaction: Fluorescence-based biochemical high throughput dose response assay to identify inhibitors of T-cell receptor (TCR)-CD3 interaction using a TAMRA-labeled BSA probe.; format: functional
Phospholipase A2 = Phospholipase A2 (Homo sapiens, UniProt P04054); format: functional;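 also: confirmatory dose-response counterscreen on phospholipase A2, testing hits that came from an ultra-high-throughput screen for ATG4B inhibitors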
Cysteine protease ATG4B = molecular target: T1, Cysteine protease ATG4B (Homo sapiens, UniProt Q9Y4P1); format: functional;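 also: Fluorescence-based dose-response confirmation assay measuring inhibition of ATG4B activity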
T1 sequence (Q9Y4P1 whole entry): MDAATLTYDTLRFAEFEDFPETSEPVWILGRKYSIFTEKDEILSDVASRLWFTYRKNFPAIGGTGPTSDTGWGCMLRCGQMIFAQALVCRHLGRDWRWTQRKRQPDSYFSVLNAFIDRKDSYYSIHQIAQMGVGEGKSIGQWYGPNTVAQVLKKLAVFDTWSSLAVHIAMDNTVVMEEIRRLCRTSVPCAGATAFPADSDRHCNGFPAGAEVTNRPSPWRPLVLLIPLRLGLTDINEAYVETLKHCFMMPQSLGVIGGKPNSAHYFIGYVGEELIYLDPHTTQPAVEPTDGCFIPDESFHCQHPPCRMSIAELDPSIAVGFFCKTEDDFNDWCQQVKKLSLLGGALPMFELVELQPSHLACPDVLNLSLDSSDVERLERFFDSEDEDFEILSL

[1] = molecular target: FAD-linked sulfhydryl oxidase ALR (Homo sapiens, UniProt P55789); assay: inhibitors of human ALR sulfhydryl oxidase, dose response, biochemical, H2O2 detection, luminescence, cherry-pick (AID 493248)
HEK293 [2] = assay: cells; settings: Homo sapiens
[3] = inhibitors of firefly luciferase expression or activity, dose response, H4 neuroglioma cells, luminescence (AID 1990); format: functional, cell-based
HEK293 [4] = assay: cells; settings: Homo sapiens; remark: listed apart in the source
[5] = microbe, parasite or virus in culture; format: functional; settings: Mycobacterium tuberculosis
[6] = inhibitors of SNCA 5'UTR-driven reporter translation, confirmation, H4 neuroglioma cells, luminescence (AID 1988); format: functional, cell-based
[7] = THP-1 cell cytotoxicity, dose response, cytotoxicity control for Vif-APOBEC3G degradation inhibitor project, THP-1 cells (AID 1117359); format: functional; settings: Human immunodeficiency virus 1, THP-1
[8] = cytotoxicity in KRAS-transformed pancreatic duct cells, primary screen, cell-based, fluorescence, HTS (AID 431); format: functional; settings: Homo sapiens;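 also: cell line used: HPDE-C7K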
[9] = cytotoxicity in HPDE-C7 cells, cell-based, fluorescence, HTS (AID 430); format: functional; settings: Homo sapiens
[10] = system: Streptococcus sp. 'group A'; assay: growth inhibition of control SK(-) GAS strain, dose response, counter-screen for streptokinase expression inhibitor project, luminescence, kanamycin, BacTiterGlo, confirmation (AID 1900); format: functional, organism-based
Streptokinase A = molecular target: T2, Streptokinase A (Streptococcus pyogenes serotype M1, UniProt P10520); assay: S. pyogenes streptokinase expression inhibitors, potency, dose response, plasminogen activation absorbance, OD405 (AID 1914); format: functional, Streptococcus pyogenes M1 GAS;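 also: secreted streptokinase activity via plasminogen activation per viability signal from cell pellet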
T2 sequence (P10520 whole entry): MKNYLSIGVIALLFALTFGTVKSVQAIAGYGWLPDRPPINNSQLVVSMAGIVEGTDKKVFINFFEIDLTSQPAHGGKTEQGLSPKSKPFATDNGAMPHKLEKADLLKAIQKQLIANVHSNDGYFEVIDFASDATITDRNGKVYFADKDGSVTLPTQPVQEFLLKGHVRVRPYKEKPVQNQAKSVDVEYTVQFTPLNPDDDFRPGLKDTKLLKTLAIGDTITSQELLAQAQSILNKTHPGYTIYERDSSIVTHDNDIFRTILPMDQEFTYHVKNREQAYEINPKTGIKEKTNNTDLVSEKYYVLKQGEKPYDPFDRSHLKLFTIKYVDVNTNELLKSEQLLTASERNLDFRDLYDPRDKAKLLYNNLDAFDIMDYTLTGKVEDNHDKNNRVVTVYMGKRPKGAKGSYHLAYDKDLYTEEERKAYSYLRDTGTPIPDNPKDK

[11] = molecular target: Disintegrin and metalloproteinase domain-containing protein 17 (Homo sapiens, UniProt P78536); assay: ADAM17 protease inhibitors, dose response, counter-screen for ADAM10 exosite inhibitor project, biochemical, quenched FRET substrate (AID 743253)
Streptococcus = assay: Group A Streptococcus viability loss, dose response, counter-screen for streptokinase expression inhibitor project, luminescence, BacTiterGlo (AID 1915); format: functional, organism-based;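 also: potency for reduction of bacterial viability or growth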
H9c2 = assay: cells; format: functional, cell-based; settings: Rattus norvegicus, H9c2, Myocardium;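 also: confirmatory concentration-response retest of ultra-high-throughput screening hits for modulation of myocardial damage; cell death induced by hydrogen peroxide oxidative stress; compound pretreatment for 60 min then peroxide exposure for 2 h; potency is for protecting the cells against peroxide damage rather than for killing them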

Sequence of Disintegrin and metalloproteinase domain-containing protein 17 (P78536 whole entry, the tested form may be a part): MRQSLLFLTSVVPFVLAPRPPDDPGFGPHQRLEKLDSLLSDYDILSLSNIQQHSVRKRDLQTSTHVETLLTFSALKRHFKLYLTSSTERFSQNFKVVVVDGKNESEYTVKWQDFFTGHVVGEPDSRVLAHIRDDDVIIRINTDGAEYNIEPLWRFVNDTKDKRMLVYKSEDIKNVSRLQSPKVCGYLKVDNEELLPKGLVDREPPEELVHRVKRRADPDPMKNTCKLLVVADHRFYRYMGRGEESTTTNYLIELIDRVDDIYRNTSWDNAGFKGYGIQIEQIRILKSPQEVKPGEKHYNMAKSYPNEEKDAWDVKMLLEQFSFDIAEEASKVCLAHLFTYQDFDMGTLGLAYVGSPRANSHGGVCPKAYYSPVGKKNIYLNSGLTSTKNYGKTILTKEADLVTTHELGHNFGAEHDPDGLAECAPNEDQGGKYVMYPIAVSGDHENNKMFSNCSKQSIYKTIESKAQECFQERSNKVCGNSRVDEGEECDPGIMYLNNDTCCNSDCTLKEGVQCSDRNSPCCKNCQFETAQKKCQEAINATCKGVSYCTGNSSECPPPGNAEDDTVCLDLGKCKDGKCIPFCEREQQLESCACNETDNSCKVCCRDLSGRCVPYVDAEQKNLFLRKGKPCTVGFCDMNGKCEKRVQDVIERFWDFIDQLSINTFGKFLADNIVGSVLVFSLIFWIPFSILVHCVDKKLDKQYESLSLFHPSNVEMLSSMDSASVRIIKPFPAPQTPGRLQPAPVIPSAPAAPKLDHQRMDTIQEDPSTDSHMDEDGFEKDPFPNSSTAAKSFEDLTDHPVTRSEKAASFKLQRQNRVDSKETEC
Sequence of Phospholipase A2 (P04054 whole entry): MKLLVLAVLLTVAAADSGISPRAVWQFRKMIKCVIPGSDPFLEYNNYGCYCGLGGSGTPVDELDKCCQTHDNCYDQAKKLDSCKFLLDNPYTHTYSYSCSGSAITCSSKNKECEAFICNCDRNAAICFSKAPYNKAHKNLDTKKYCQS
Sequence of FAD-linked sulfhydryl oxidase ALR (P55789 whole entry): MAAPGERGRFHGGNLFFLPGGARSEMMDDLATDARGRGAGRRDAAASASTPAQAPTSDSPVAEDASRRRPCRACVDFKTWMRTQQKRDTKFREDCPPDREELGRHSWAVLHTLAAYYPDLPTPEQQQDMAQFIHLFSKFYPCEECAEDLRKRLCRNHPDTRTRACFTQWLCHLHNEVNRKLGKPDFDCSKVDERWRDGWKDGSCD
Sequence of Albumin (P02769 whole entry): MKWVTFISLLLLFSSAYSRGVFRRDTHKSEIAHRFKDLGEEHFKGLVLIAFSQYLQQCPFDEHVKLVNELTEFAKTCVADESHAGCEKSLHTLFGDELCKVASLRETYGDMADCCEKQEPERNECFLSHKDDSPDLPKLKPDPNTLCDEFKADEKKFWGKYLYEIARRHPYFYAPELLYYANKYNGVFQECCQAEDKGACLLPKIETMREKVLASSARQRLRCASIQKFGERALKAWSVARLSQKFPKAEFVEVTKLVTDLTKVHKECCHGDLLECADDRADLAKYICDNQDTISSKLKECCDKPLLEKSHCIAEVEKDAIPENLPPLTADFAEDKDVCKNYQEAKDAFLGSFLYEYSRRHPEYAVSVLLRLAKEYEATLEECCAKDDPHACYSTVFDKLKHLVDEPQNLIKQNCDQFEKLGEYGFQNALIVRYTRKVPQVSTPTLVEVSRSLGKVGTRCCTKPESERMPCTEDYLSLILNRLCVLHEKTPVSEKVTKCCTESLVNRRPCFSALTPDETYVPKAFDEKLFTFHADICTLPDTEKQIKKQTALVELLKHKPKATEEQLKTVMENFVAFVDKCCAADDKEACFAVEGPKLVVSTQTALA

COc1ccc(-c2cc(CNS(=O)(=O)c3ccc(NC(C)=O)cc3)on2)cc1
CC50 (Vero): > 25 µM (active)

COc1ccc(-c2cnnn2-c2ccc(NC(=O)c3ccc(S(=O)(=O)N4CCCCC4)cc3)cc2)cc1OC
IC50 (Albumin): > 94.1 µM (inactive)

Cc1cc(NS(=O)(=O)c2ccc(Nc3nc(-c4ccc(C)c(C)c4)cs3)cc2)no1
IC50 (Phospholipase A2): 11.9 µM (active) | IC50 (Cysteine protease ATG4B): 13.1 µM (active)

CC(C)c1ccc(NC2CCCN(C(=O)CCN3Cc4ccccc4C3=O)C2)cc1 (stereo not given)
AC50 [1]: 4.43 µM (active) | IC50 (Phospholipase A2): 7.98 µM (active) | IC50 (Cysteine protease ATG4B): 15.5 µM (active)

COc1ccc(-c2nnc3sc(C4CCCCC4)nn23)cc1OC
EC50 (HEK293 [2]): > 59.7 µM (inactive) | EC50 [3]: 58.6 µM (active) | EC50 (HEK293 [4]): > 59.7 µM (inactive) | CC50 [5]: > 40 µM (active) | EC50 [6]: 25.6 µM (active)

COc1ccc(C(=O)C2CCCN(C(=O)c3cnsn3)C2)c(C)c1 (stereo not given)
CC50 [7]: > 40 µM (active)

COc1ccc(C2NC3=C(CCCC3)C(C#N)(C#N)C2(C#N)C#N)cc1 (stereo not given)
EC50 [8]: > 20 µM (not active) | EC50 [9]: > 20 µM (not active)

O=[N+]([O-])c1cc(S(=O)(=O)Nc2ccccc2)ccc1N1CCN(c2ccccc2)CC1
EC50 [10]: 16.2 µM (active) | EC50 (Streptokinase A): 23.9 µM (active) | IC50 [11]: > 69.5 µM (inactive) | CC50 (Vero): 13.5 µM (active) | EC50 (Streptococcus): > 150 µM (not active)

CCOC(=O)c1c(C)nc2sc3c(=O)n(-c4ccc(C(C)=O)cc4)cnc3c2c1-c1ccc(OC)cc1
IC50 (H9c2): > 79 µM (inactive)

CCOc1cccc(CN2CCCC(C(=O)Nc3cccc(-n4cccn4)c3)C2)c1 (stereo not given)
CC50 [7]: > 40 µM (active)

O=C(NNC(=O)c1cc(-c2ccccc2)nc2ccccc12)Nc1cccc(Cl)c1
EC50 [10]: 3.9 µM (active) | EC50 (Streptokinase A): 22.4 µM (active) | IC50 [11]: > 69.5 µM (inactive) | EC50 (Streptococcus): 40.2 µM (active)

COc1cc(OC)cc(-c2nc3ccccc3c(=O)n2OC(=O)c2ccc(Br)cc2)c1
IC50 (Phospholipase A2): 4.74 µM (active) | IC50 (Cysteine protease ATG4B): 2.51 µM (active)

COC(=O)c1ccc(N2CCC(c3cc(-c4ccc(OC)cc4)n[nH]3)CC2)c([N+](=O)[O-])c1
EC50 (Streptokinase A): > 150 µM (not active) | IC50 [11]: > 69.5 µM (inactive)
